Data published in US10036011B2, “Scavenger compounds for improved sequencing-by-synthesis” (QIAGEN Waltham, Inc., priority 2016, dated 2018).
Entries after “also recorded” stand apart in the source; their conditions may differ.

Tests used:
[1] = IPA solubility and stability in Cleave 1 solution / Cleave Reagent formulations (concentration curve); assay type: physicochemical; settings: for Color / Precipitate / Solubility / pH: Cleave 1 solution
Experimental: IPA was initially tested for solubility and stability in Cleave Reagent formulations. […] IPA was then tested by sequencing in a head-to-head comparison with the reference cleaving reagent, gallic acid, to provide a performance benchmark. IPA was implemented into a sequencing workflow as a standalone powder component to the cleave reagent. See, Example IV.
This example tests alternative formulations and chemistry for a cleave mix including TCEP as a standard reducing agent and IPA as a radical oxygen scavenger. The goal is to test both solubility and the ease of implementation into a kit configuration.
Formation of solid components directly within a Cleave 1 solution using an IPA concentration curve (10 mM, 25 mM and 50 mM) was assessed by measuring solubility, color, precipitate observation and pH level.

[2] = Carnitine and acetylcarnitine solubility and stability in Cleave reagent; assay type: physicochemical; settings: for solubility into Cleave reagent: 10 mM, 25 mM and 50 mM; for stability against discoloration and precipitation: cleave reagent formulations, storage at room temperature; for solubility in cleave reagent formulations: over a range of concentrations; for stability of solutions (discoloration or precipitate): room temperature (RT), a few hours of storage
Experimental: L-carnitine and O-acetyl-carnitine were tested for solubility and stability in cleave reagent formulations similarly to IPA. […] See, Example V.
This example tests carnitine-based compounds for solubility into Cleave reagent. Various concentrations (10 mM, 25 mM and 50 mM) of carnitine and acetylcarnitine were tested for solubility and stability.

In the case of O=C(O)CCc1c[nH]c2ccccc12 [IPA, indole-3-propionic acid], the Color ([1]; 10 mM/2-8 C.°, 0 hours) is reported as “No color; also recorded: Transparent”, the Precipitate ([1]; 10 mM/2-8 C.°, 0 hours) is reported as “None” and the Solubility ([1]; 10 mM/2-8 C.°, 0 hours) is reported as “Excellent”. The pH ([1]; 10 mM/2-8 C.°, 0 hours) was 12.81, the Color ([1]; 10 mM/2-8 C.°, 8 hours) was “Transparent; also recorded: No color” and the Precipitate ([1]; 10 mM/2-8 C.°, 8 hours) was “None”. The Solubility ([1]; 10 mM/2-8 C.°, 8 hours) was “Excellent”, the pH ([1]; 10 mM/2-8 C.°, 8 hours) was 12.80 and the Color ([1]; 10 mM/2-8 C.°, 48 hours) was “Transparent; also recorded: No color”. For the same compound, the Precipitate ([1]; 10 mM/2-8 C.°, 48 hours) was “None”, the Solubility ([1]; 10 mM/2-8 C.°, 48 hours) was “Excellent” and the pH ([1]; 10 mM/2-8 C.°, 48 hours) was 12.83. The Color ([1]; 10 mM/RT, 0 hours) was “Transparent; also recorded: No color”, the Precipitate ([1]; 10 mM/RT, 0 hours) was “None” and the Solubility ([1]; 10 mM/RT, 0 hours) was “Excellent”. For the same compound, the pH ([1]; 10 mM/RT, 0 hours) was 12.88, the Color ([1]; 10 mM/RT, 8 hours) was “Transparent; also recorded: No color” and the Precipitate ([1]; 10 mM/RT, 8 hours) was “None”. For the same compound, the Solubility ([1]; 10 mM/RT, 8 hours) was “Excellent”, the pH ([1]; 10 mM/RT, 8 hours) was 12.83 and the Color ([1]; 10 mM/RT, 48 hours) was “Transparent; also recorded: No color”. For the same compound, the Precipitate ([1]; 10 mM/RT, 48 hours) was “None”, the Solubility ([1]; 10 mM/RT, 48 hours) was “Excellent” and the pH ([1]; 10 mM/RT, 48 hours) was 12.79. The Precipitate ([1]; 25 mM RT, 0 hours) was “None”, the Solubility ([1]; 25 mM RT, 0 hours) was “Excellent” and the pH ([1]; 25 mM RT, 0 hours) was 12.78. The Precipitate ([1]; 25 mM/2-8 C.°, 0 hours) was “None”, the Solubility ([1]; 25 mM/2-8 C.°, 0 hours) was “Excellent” and the pH ([1]; 25 mM/2-8 C.°, 0 hours) was 12.75. The Precipitate ([1]; 25 mM/2-8 C.°, 8 hours) was “None”, the Solubility ([1]; 25 mM/2-8 C.°, 8 hours) was “Excellent” and the pH ([1]; 25 mM/2-8 C.°, 8 hours) was 12.71. For the same compound, the Precipitate ([1]; 25 mM/2-8 C.°, 48 hours) was “None”, the Solubility ([1]; 25 mM/2-8 C.°, 48 hours) was “Excellent” and the pH ([1]; 25 mM/2-8 C.°, 48 hours) was 12.76. The Precipitate ([1]; 25 mM/RT, 8 hours) was “None”, the Solubility ([1]; 25 mM/RT, 8 hours) was “Excellent” and the pH ([1]; 25 mM/RT, 8 hours) was 12.67. The Precipitate ([1]; 25 mM/RT, 48 hours) was “None”, the Solubility ([1]; 25 mM/RT, 48 hours) was “Excellent” and the pH ([1]; 25 mM/RT, 48 hours) was 12.71. The Color ([1]; 50 mM/2-8 C.°, 0 hours) was “Transparent; also recorded: Pale yellow”, the Precipitate ([1]; 50 mM/2-8 C.°, 0 hours) was “None” and the Solubility ([1]; 50 mM/2-8 C.°, 0 hours) was “Excellent”. The pH ([1]; 50 mM/2-8 C.°, 0 hours) was 12.67, the Precipitate ([1]; 50 mM/2-8 C.°, 8 hours) was “None” and the Solubility ([1]; 50 mM/2-8 C.°, 8 hours) was “Excellent”. For the same compound, the pH ([1]; 50 mM/2-8 C.°, 8 hours) was 12.61, the Precipitate ([1]; 50 mM/2-8 C.°, 48 hours) was “None” and the Solubility ([1]; 50 mM/2-8 C.°, 48 hours) was “Excellent”. For the same compound, the pH ([1]; 50 mM/2-8 C.°, 48 hours) was 12.64, the Precipitate ([1]; 50 mM/RT, 0 hours) was “None” and the Solubility ([1]; 50 mM/RT, 0 hours) was “Excellent”. For the same compound, the pH ([1]; 50 mM/RT, 0 hours) was 12.61, the Precipitate ([1]; 50 mM/RT, 8 hours) was “None” and the Solubility ([1]; 50 mM/RT, 8 hours) was “Excellent”. For the same compound, the pH ([1]; 50 mM/RT, 8 hours) was 12.69, the Precipitate ([1]; 50 mM/RT, 48 hours) was “None” and the Solubility ([1]; 50 mM/RT, 48 hours) was “Excellent”. For the same compound, the pH ([1]; 50 mM/RT, 48 hours) was 12.72, the “stability against discoloration and precipitation” value ([1]; Cleave Reagent formulations, prolonged storage at room temperature) was “stable against discoloration and precipitation” and the “stability (lack of discoloration and/or formation of precipitate)” value ([1]; aqueous solution at pH ~12) was “relative stability”. For the same compound, the “solubility in cleave reagent formulations” value ([1]; over a range of concentrations) was “highly soluble” and the “solubility in aqueous solution” value ([1]; pH ~12) was “highly soluble”.
For C[N+](C)(C)C[C@H](O)CC(=O)[O-] [L-carnitine], the “solubility into Cleave reagent” value [2] was “very soluble”, the “stability against discoloration and precipitation” value [2] was “stable against discoloration and precipitation” and the “solubility in cleave reagent formulations” value [2] was “highly soluble”. For the same compound, the “stability of solutions (discoloration or precipitate)” value [2] was “no discoloration or precipitate were observed”.
In the case of CC(=O)O[C@H](CC(=O)[O-])C[N+](C)(C)C [O-acetyl-carnitine, O-acetyl-L-carnitine], the “solubility into Cleave reagent” value [2] is reported as “very soluble”, the “stability against discoloration and precipitation” value [2] is reported as “stable against discoloration and precipitation” and the “solubility in cleave reagent formulations” value [2] is reported as “highly soluble”. The “stability of solutions (discoloration or precipitate)” value [2] was “no discoloration or precipitate were observed”.
